Experimental data published in patent publication US4990518A, “Pharmacologically active heteroaryl substituted imidazo (4,5-c) pyridines” (G. D. Searle & Co., priority 1989, dated 1991).

Columns and labels:
[1] = molecular target: PAF receptor (Human Platelet Membrane Receptors) (Homo sapiens, UniProt P25105)
Protocol: Inhibition of ^3 H-PAF Binding to Human Platelet Membrane Receptors
Receptor Preparation: Ten units of in-dated human packed platelets, each containing 45-65 ml platelet rich-plasma, were purchased from a commercial blood bank. Disposable plasticware was used throughout for receptor preparation. The units were pooled and a 1 ml aliquot was removed for determination of platelet concentration, using a Coulter Counter. […] Protein content was determined by a fluorescamine protein assay.
Assay Methods: Receptor Characterization--Each receptor preparation was evaluated to determine the number of receptor populations, the number of PAF receptor equivalents/mg protein and the dissociation constant (KD) for PAF binding. This required 2-3 experiments in which the protein concentration was held constant and the ^3 H-PAF ligand concentration was varied from approximately 0.10-2.5 nM and the data was analyzed by Scatchard methodology. […]
Assay Methods: Routine Assay of Compounds--The compounds were weighed precisely and solubilized in quantities of DMSO such that a 5 μl aliquot in the incubate would deliver the desired compound concentration. Compounds tested for the first time in this assay were evaluated at a concentration of 50 μM in the incubation medium. […]

[2] = tested on: PAF-induced aggregation of washed rabbit platelets; test: PAF-induced platelet aggregation; assay type: cell-based; conditions: Oryctolagus cuniculus, antagonist 60 sec before PAF (0.2 nM to 0.2 μM), read 60 sec after PAF
Protocol: (§1) PAF-induced platelet aggregation and secretion: Washed, [^3 H]serotonin labeled rabbit platelets were prepared as previously described in COX, C. P , J. LINDEN and S. I. SAID: VIP elevates platelet cyclic AMP (cAMP) levels and inhibits in vitro platelet activation induced by platelet-activating factor (PAF). Peptides 5:25-28, 1984, and maintained in an atmosphere of 5% CO2 at 37° C. until used in the bioassay. Aliquots of platelets (2.5×10^8 /ml) were incubated with either an antagonist of PAF or the appropriate vehicle for 60 sec prior to the addition of PAF (0.2 nM to 0.2 μM). Aggregation was continuously monitored on a strip-chart recorder and recorded as the height of the tracing at 60 sec after the addition of PAF. Secretion of [^3 H] serotonin was measured in a sample of the platelet suspension removed at 60 sec after the addition of PAF. The percent inhibition of aggregation and secretion was calculated by comparing antagonist-treated platelets with the appropriate vehicle-treated control platelets. Each combination of antagonist and PAF was repeated using different platelet preparations. IC50 values were determined by inspection of the dose-response curves.

[3] = tested on: PAF-induced secretion of [^3 H]serotonin-labeled rabbit platelets; test: PAF-induced platelet secretion ([^3 H]serotonin); assay type: cell-based; conditions: Oryctolagus cuniculus, washed rabbit platelets, antagonist 60 sec before PAF (0.2 nM to 0.2 μM), read 60 sec after PAF
Protocol: as §1

Sequence of PAF receptor (Human Platelet Membrane Receptors) (P25105 whole entry): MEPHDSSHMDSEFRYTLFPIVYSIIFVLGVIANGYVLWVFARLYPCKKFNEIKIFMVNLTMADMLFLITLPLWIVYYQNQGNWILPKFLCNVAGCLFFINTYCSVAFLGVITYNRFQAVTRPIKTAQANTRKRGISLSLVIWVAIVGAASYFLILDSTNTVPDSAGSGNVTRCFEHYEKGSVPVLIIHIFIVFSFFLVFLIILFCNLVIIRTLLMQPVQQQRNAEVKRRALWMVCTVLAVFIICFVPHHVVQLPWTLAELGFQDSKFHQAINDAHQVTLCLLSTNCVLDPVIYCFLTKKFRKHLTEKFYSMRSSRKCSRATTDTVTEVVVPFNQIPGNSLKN

Row | SMILES | IC50 [1] | IC50 [2] | IC50 [3] | inhibition at 50 µM ([1]; read-out: inhibited ^3 H-PAF binding (triazolam compound inhibition control))
1 | O=C(c1ccc(Cn2ccc3ncnc-3c2)nc1)N(C1CCCC1)C1CCCC1 [Example 1, N,N-dicyclopentyl-6-(5H-imidazo[4,5-c]pyridin-5-yl-methyl)-3-pyridinecarboxamide] | 880 nM | – | – | –
2 | CN(C(=O)c1ccc(Cn2ccc3ncnc-3c2)o1)C1CCCCC1 [Example 2, N-cyclohexyl-5-[(5H-imidazo[4,5-c]pyridin-5-yl)methyl]N-methyl-2-furancarboxamide] | – | ~100 µM | 50 µM | –
3 | O=C(c1ccc(Cn2ccc3ncnc-3c2)o1)N(C1CCCCC1)C1CCCC1 [Example 3] | – | 10 to 100 µM | 2.8 µM | –
4 | Cc1nnc2n1-c1ccc(Cl)cc1C(c1ccccc1Cl)=NC2 [Triazolam, triazolam, reference compound] | – | – | – | ~50%
